The text below walks through data of PMC7688903 (Frontiers in Microbiology, 2020).

In brackets after ≈: the same amount, converted by molar mass. Where a SMILES comes first, the peptide text is derived from it. [ ]: non-standard residue; d: D form. 2Thi = N[C@@H](Cc1cccs1)C(=O)O; Aib = CC(C)(N)C(=O)O

In data set [1] the test system is C. albicans ATCC 10231. In words: microbe, parasite or virus in culture. Format: cell-based, Candida albicans. The settings on record: ATCC 10231, 48 h. An outline of the steps: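 Inocula were set to 0.5 McFarland and diluted to ~5 × 10^5 CFU/mL (bacteria, MH broth) or 0.5 × 10^3 to 2.5 × 10^3 CFU/mL (yeast, RPMI 1640). Peptide twofold dilutions were added, plates incubated 20 h at 37°C or 48 h at 35°C, then scored by eye.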

Data set [2] has as its system proteases secreted by S. aureus ATCC 25923. As to the kind of experiment: in vitro. An outline of the steps:
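Cell-free culture supernatants (overnight, 37°C; MH broth for bacteria, 2% tryptone/2% dextrose for yeast) were centrifuged, adjusted to pH 8.0 and 0.22 μm filtered. Peptides at 0.5 mg/mL were incubated in supernatant 24 h at 37°C; remaining intact peptide measured by RP-HPLC, with peptide-free supernatant as negative control.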

Data set [3] can be described thus: Hydrophobicity by RP-HPLC retention time. Format: physicochemical. The protocol:
Each peptide was dissolved in ddH2O to a concentration of 0.5 mg/mL and then subjected to RP-HPLC on an analytical Waters XBridge C18 column (length: 250 mm, internal diameter: 4.6 mm) using 0.1% TFA in water as solvent A and 0.1% TFA in acetonitrile as solvent B. The peptides were eluted using a linear gradient as follows: 5%B to 45%B over 20 min, 45%B to 60%B over 2 min, and 60%B to 5%B over 1 min. The flow rate was 1 mL/min and the absorbance was measured at 215 nm. The retention time was recorded for each peptide ([Kim et al., 2005]).
Peptide hydrophobicity, net charge, amphipathic nature, and secondary structure are believed to be important for antimicrobial activity ([Lee et al., 2016]; [Li J. et al., 2017]). Among these, hydrophobicity has been recognized as an important factor to promote hydrophobic interaction with the hydrophobic core of the lipid bilayer, leading to membrane disruption, cytoplasm leakage, and eventual cell death ([Schmidtchen et al., 2014]). However, the actual hydrophobicity in liquid environment has been reported to usually show disagreement with the theoretical mean hydrophobicity ([Kim et al., 2005]). […] More hydrophobic compounds are typically eluted later from the column. […]

In data set [1], `CC(C)C[C@H](NC(=O)[C@H](CC(C)C)NC(=O)[C@@H](CCCCN)NC(=O)[C@@H](CCCCN)NC(=O)[C@H](Cc1ccccc1)NC(=O)[C@H](CC(C)C)NC(=O)[C@@H](CCCNC(=N)N)NC(=O)[C@H](N)CCCCN)C(=O)N[C@H](CCCCN)C(=O)N[C@@H](Cc1ccc(O)cc1)C(=O)N[C@@H](CC(C)C)C(=O)N[C@H](CCCNC(=N)N)C(=O)N[C@H](CCCCN)C(=O)N[C@@H](Cc1ccccc1)C(N)=O` [DP06] (H-[dK][dR]LF[dK][dK]LL[dK]YL[dR][dK]F-NH2) had an MIC of 2 µg/mL (≈ 1.06 µM). In data set [2] (Staphylococcus aureus, S. aureus ATCC 25923 culture supernatant, pH 8), the amount remaining (commonly what is left of the initial amount, in per cent) at 24 h, 0.5 mg/mL came out at 86.4 ± 4.81%.

Regarding `CC(C)C[C@H](NC(=O)[C@H](Cc1ccc(O)cc1)NC(=O)[C@H](CCCCN)NC(=O)[C@H](CC(C)C)NC(=O)[C@H](CC(C)C)NC(=O)[C@H](CCCCN)NC(=O)[C@H](CCCCN)NC(=O)[C@H](Cc1ccccc1)NC(=O)[C@H](CC(C)C)NC(=O)[C@H](CCCNC(=N)N)NC(=O)C(C)(C)N)C(=O)N[C@@H](CCCNC(=N)N)C(=O)N[C@@H](CCCCN)C(=O)N[C@@H](Cc1cccs1)C(N)=O` [UP09] (H-[Aib]RLFKKLLKYLRK[2Thi]-NH2; N-terminus assumed), the “relative retention time (RRT) with respect to Pep05” value in data set [3] (RP-HPLC retention time of peptide / that of Pep05, C18, acetonitrile/water/TFA) is listed as 1.08. The “RT (RP-HPLC retention time, measure of hydrophobicity)” value in data set [3] (chromatographic, Waters XBridge C18 250 x 4.6 mm, 0.5 mg/mL in ddH2O, A 0.1% TFA/water, B 0.1% TFA/acetonitrile, 5-45%B over 20 min, 1 mL/min, UV 215 nm) was 16.606 min. Also, in data set [1], the MIC worked out at 4 µg/mL (≈ 2.17 µM). In addition, in data set [2] (S. aureus ATCC 25923 culture supernatant (MH broth), pH 8.0, 0.22 μm filtered, peptide 0.5 mg/mL, 37°C, 24 h, RP-HPLC), the “Percent of remained peptide amount after incubation (%)” value came out at 36.92 ± 3.97 %.
